Reference: US12115178B2, “Acylated active agents and methods of their use for the treatment of autoimmune disorders” (Flagship Pioneering Innovations V, Inc., priority 2018, dated 2024)

Key:
AhR = AhR activation in Caco-2 cells through CYP1A1 mRNA expression; settings: overnight
Experimental: Caco-2 cells from American Type Culture Collection (ATCC) were plated in a sterile tissue culture treated 96-well plate (ThermoFisher) at […], and grown overnight at 37° C., 5% CO2 in DMEM complete (Gibco) in order to achieve confluence. After the incubation medium was aspirated off of the Caco-2 monolayers, tissues were then washed with 200 μL of warmed PBS solution, and subsequently 190 μL of pre-warmed growth medium was added to each well. Compounds of interest were diluted at a 20× concentration in growth medium containing 2% DMSO, and 10 μL of compound solutions were added to respective wells in triplicate. Compounds where incubated overnight at 37° C., 5% CO2. 2-(1′H-indole-3′-carbonyl)-thiazole-4-carboxylic acid methyl ester (ITE) was used as the positive control for AhR activation at 1 and 100 μM concentrations. At the end of the incubation, medium was aspirated off of the Caco-2 cells, and the cells washed with 100 μL of cold PBS solution. RNA was extracted via the TaqMan™ Gene Expression Cells-to-CT™ Kit (ThermoFisher) according to the manufacturers protocol. The QuantStudio 6 Flex (Applied Biosciences) was used to analyze mRNA levels of CYP1A1 using GAPDH as the endogenous control. TaqMan™ probe sets for both genes were acquired from ThermoFisher. Samples were run in triplicate and data was analyzed using the QuantStudio software and reported as linear (Table 1) and log 2(ΔΔCT) values. Statistical analysis was performed using a two-tailed t-test comparing CYP1A1 levels in the presence of each individual compound to the vehicle negative control.

neutrophil = assay: Neutrophil chemokine production assay; type: cell-based, human; settings: 12 h
Experimental: A volume 25 mL of human blood was layered over 15 mL of Histopaque®-1077 and centrifuged at 500 g, RT, for 30 min with no break applied to the centrifuge. The PBMC band and Histopaque®-1077 layer were removed leaving behind the bottom red layer which was mixed with 40 mL of 1× red blood cell (RBC) lysis buffer (Sigma-Aldrich) was and split into two 50 mL tubes. The volume for both fractions was brought to 50 mL with RBC lysis buffer, mixed by inversion, and then incubated at RT for 10 min. Solutions were centrifuged at 250 g, for 10 min at RT and the supernatant liquids removed. The reddish pellets were re-suspended in 1 mL of RBC lysis buffer and combined. The cell suspension was incubated for 5 min at RT in RBC lysis buffer. After incubation 45 mL of Hanks Balanced Salt Solution with no calcium, magnesium or phenol red (HBSS−) was added, the cell suspension was spun (250 g for 10 min at RT), and supernatant liquids were removed. The white pellet was re-suspended in 1 mL of HBSS−, and cell counts were determined. The neutrophil cell suspension was brought to a concentration of 1.11e6 cells/mL in RPMI complete (Sigma-Aldrich), and 180 μL of cell suspension was transferred to all wells within a sterile 96-well tissue culture treated plate resulting in 2.0e5 cells/well. […] After incubation, 10 μL of 2 μg/mL LPS solution in RPMI complete was added to each well except for control wells, which received an additional 10 μL of media. Cells were incubated for 12 h (37° C., 5% CO2), after which plates were centrifuged at 250 g, RT, for 5 min and supernatant liquids were obtained and stored at −80° C. until analyzed via Luminex® Multiplex Assay for various chemokines and cytokines. Three data points were acquired from two different blood donors and averaged.

Caco-2 colonocytes = assay: Human Caco-2 barrier integrity assay (TEER); type: cell-based; settings: 48 hours
Experimental: At 70-80% confluency, cells were trypsinized and seeded in 0.4 cm^2 transwell collagen I coated membranes with supplemented DMEM in both apical and basolateral compartments. Cells were seeded at a density of 200,000 cells per well and maintained for 10 days to form a polarized barrier with a TransEpithelial […] After 48 hours, TEER readings were taken again and viability was measured by CellTiter 96® AQueous One Solution Cell Proliferation Assay (Promega). The percent change in TEER over the 48 hours was determined and normalized to the 0.1% DMSO control (Table 6).

[1] = test system: Primary Human Peripheral Blood Mononuclear Cells (PBMCs); assay: Inflammatory signals in LPS-treated primary human PBMCs; type: cell-based; settings: 100 uM, 24 hours
Experimental: Human donor blood (8 mL) was collected in sodium citrate CPT tubes and centrifuged at 1,600×g for 20 minutes at room temperature. Buffy coat containing PBMCs was collected and transferred to a 50 mL conical tube containing 30 mL of RPMI-1640 medium at room temperature (supplemented with penicillin-streptomycin). PBMCs samples were centrifuged at 400×g for 10 minutes at 10° C. The pelleted PBMCs were washed twice in 10 ml of RPMI-1640 medium (supplemented with penicillin-streptomycin), then resuspended in RPMI-1640 medium (supplemented with penicillin-streptomycin, fetal bovine serum, and L-Glutamine). PBMCs were filtered through a 70 micron mesh to remove any cellular debris. […] PBMCs in a 96-well plate were rested for 30 minutes in a 37° C., 5% CO2 incubator, then subsequently treated with 10 μl of indicated compound. After 2 hours 10 μL of LPS (O111:B4) 1 mg/mL was added to test wells. After 24 hours of incubation at 37° C., 5% CO2, 100 μL of cell supernatant was collected and transferred to a 96-well plate (non-tissue treated, flat bottom). The plate was centrifuged at 350×g for 5 minutes at room temperature, and then the clear supernatant transferred to a new 96-well plate (non-tissue treated, flat bottom). The remaining cells were tested for viability using CellTiter-Glo® Luminescent Cell Viability Assay (Promega). The supernatant was analyzed for TNFα, IL-6 and […] Systems), using Luminex Immunoassay Technology (MAGPIX System). Cytokine levels of LPS treated DMSO control samples were set to 100%, and compound treated samples were expressed relative to this (Table 3).

COC(=O)c1csc(C(=O)c2c[nH]c3ccccc23)n1 [ITE, 2-(1′H-indole-3′-carbonyl)-thiazole-4-carboxylic acid methyl ester]
Average CYP1A1 mRNA levels (AhR; 1.0 μM): +++ (+++ = >10-fold Vehicle)

OCc1c[nH]c2ccccc12 [indole-3-carbinol]
Average CYP1A1 mRNA levels (AhR; 1000.0 μM): + (+ = >2-fold Vehicle)

CC(O)CC(=O)O (stereo not drawn) [beta-hydroxybutyric acid, β-hydroxybutyric acid]
% IL-8 (Vehicle + LPS = 100%) (neutrophil; 200.0 μM): − (− = >90% Vehicle)
% MIP-1α (Vehicle + LPS = 100%) (neutrophil; 200.0 μM): − (− = >90% Vehicle)
% MIP-1β (DMSO + LPS = 100%) (neutrophil; 200.0 μM): + (+ = <90% Vehicle)
% IL-8 (Vehicle + LPS = 100%) (neutrophil; 2000.0 μM): + (+ = <90% Vehicle)
% MIP-1α (Vehicle + LPS = 100%) (neutrophil; 2000.0 μM): ++ (++ = <70%Vehicle)
% MIP-1β (DMSO + LPS = 100%) (neutrophil; 2000.0 μM): + (+ = <90% Vehicle)
% Change in TEER from DMSO (Caco-2 colonocytes; 200 μM + cytokines): + (125%> <150%: +)
% Change in TEER from DMSO (Caco-2 colonocytes; 2 mM + cytokines): − (<125%: −)
IL1β % DMSO control [1]: − ((−) >110% DMSO)
IL6 % DMSO control [1]: = ((=) 90%> <110% DMSO)
TNFα % of DMSO control [1]: − ((−) >110% DMSO)

O=C(O)c1ccccc1 [Benzoic acid]
Average CYP1A1 mRNA levels (AhR; 10.0 μM): + (+ = >2-fold Vehicle)
Average CYP1A1 mRNA levels (AhR; 100.0 μM): + (+ = >2-fold Vehicle)

CC(O)CCO (centres unmarked) [butanediol, 1,3-butanediol]
% IL-8 (Vehicle + LPS = 100%) (neutrophil; 100.0 μM): − (− = >90% Vehicle)
% MIP-1α (Vehicle + LPS = 100%) (neutrophil; 100.0 μM): − (− = >90% Vehicle)
% MIP-1β (DMSO + LPS = 100%) (neutrophil; 100.0 μM): + (+ = <90% Vehicle)
% IL-8 (Vehicle + LPS = 100%) (neutrophil; 500.0 μM): − (− = >90% Vehicle)
% MIP-1α (Vehicle + LPS = 100%) (neutrophil; 500.0 μM): − (− = >90% Vehicle)
% MIP-1β (DMSO + LPS = 100%) (neutrophil; 500.0 μM): + (+ = <90% Vehicle)
Average CYP1A1 mRNA levels (AhR; 500.0 μM): − (- = <2-fold Vehicle)
IL1β % DMSO control [1]: = ((=) 90%> <110% DMSO)
